Measurements: ChEMBL document CHEMBL3885861, “Open TG-GATES”

Organism: Rattus norvegicus
Test: Open TG-GATES - Regimen: Daily Repeat
Assay type: toxicity, organism-based, Sprague-Dawley
Parameters: regimen Daily Repeat, gender Male, age 6 weeks
Conditions: in vivo, po, route gavage; for KIDNEY_L / KIDNEY_R / KIDNEY_TOTAL: tissue Kidney; for ALP / ALT / AST / BUN / CRE / Ca / DBIL / IP / K / Na / PL / RALB / TBIL / TC / TG / TP / gamma-GTP / LDH: tissue Plasma; for LIVER: tissue Liver
[1] = 120 mg/kg, 72 h, tissue Blood, dose level Middle, time 3 day
[2] = 120 mg/kg, 72 h, dose level Middle, time 3 day
[3] = 120 mg/kg, […], dose level Middle, time 7 day
[4] = 120 mg/kg, […], dose level Middle, time 14 day
[5] = 120 mg/kg, […], dose level Middle, time 28 day
[6] = 120 mg/kg, […], tissue Blood, dose level Middle, time 7 day
[7] = 120 mg/kg, […], tissue Blood, dose level Middle, time 14 day
[8] = 120 mg/kg, […], tissue Blood, dose level Middle, time 28 day
[9] = 400 mg/kg, 72 h, tissue Blood, dose level High, time 3 day

Structure (SMILES): CCC(C)(C)C(=O)O[C@H]1C[C@@H](C)C=C2C=C[C@H](C)[C@H](CC[C@@H]3C[C@@H](O)CC(=O)O3)[C@H]21 [SIMVASTATIN]
- Ht [1]: 41%
- Lym [1]: 80.2%
- MCHC [1]: 33.2%
- Mono [1]: 8.4%
- Neu [1]: 10.2%
- Plat [1]: 119.9 x10_4/uL
- RBC [1]: 644.2 x10_4/ul
- Ret [1]: 5.5%
- WBC [1]: 81 x10_2/uL
- KIDNEY_L [2]: 1 g
- KIDNEY_R [2]: 1 g
- KIDNEY_TOTAL [2]: 2 g
- ALP [2]: 885.4 IU/L
- ALT [2]: 42 IU/L
- AST [2]: 62.2 IU/L
- BUN [2]: 16.4 mg/dL
- CRE [2]: 0.6 mg/dL
- Ca [2]: 10.8 mg/dL
- DBIL [2]: 0.012 mg/dL
- IP [2]: 7.3 mg/dL
- K [2]: 4.4 meq/L
- Na [2]: 139.6 meq/L
- PL [2]: 131.2 mg/dL
- RALB [2]: 3.9 g/dL
- TBIL [2]: 0.3 mg/dL
- TC [2]: 81.6 mg/dL
- TG [2]: 48.2 mg/dL
- TP [2]: 5.6 g/dL
- gamma-GTP [2]: 1.4 IU/L
- TERMINAL_BW [3]: 245.2 g
- TERMINAL_BW [4]: 292.4 g
- TERMINAL_BW [5]: 375.8 g
- Bas [6]: 0%
- Eos [6]: 1%
- Fbg [6]: 222.8 mg/dL
- Hb [6]: 13.3 g/dL
- Ht [6]: 40%
- Lym [6]: 83.8%
- MCHC [6]: 33.1%
- Mono [6]: 7.4%
- Neu [6]: 8.4%
- PT [6]: 11 s
- Plat [6]: 123.4 x10_4/uL
- RBC [6]: 630.6 x10_4/ul
- Ret [6]: 3.3%
- WBC [6]: 106.6 x10_2/uL
- Bas [7]: 0%
- Eos [7]: 0.8%
- Fbg [7]: 223.6 mg/dL
- Hb [7]: 14.2 g/dL
- Ht [7]: 42.5%
- Lym [7]: 80%
- MCHC [7]: 33.3%
- Mono [7]: 5.2%
- Neu [7]: 14.4%
- Plat [7]: 121.2 x10_4/uL
- RBC [7]: 698 x10_4/ul
- Ret [7]: 6%
- Bas [8]: 0%
- Eos [8]: 1%
- Fbg [8]: 238.8 mg/dL
- Hb [8]: 15 g/dL
- Ht [8]: 45.4%
- Lym [8]: 83.4%
- MCHC [8]: 33.1%
- MCV [8]: 58.3 fL
- Mono [8]: 5.2%
- PT [8]: 11.8 s
- Plat [8]: 116.8 x10_4/uL
- RBC [8]: 778.6 x10_4/ul
- Ret [8]: 2.4%
- WBC [8]: 114.5 x10_2/uL
- KIDNEY_L [3]: 1.1 g
- KIDNEY_R [3]: 1.1 g
- KIDNEY_TOTAL [3]: 2.2 g
- KIDNEY_L [4]: 1.2 g
- KIDNEY_R [4]: 1.2 g
- KIDNEY_TOTAL [4]: 2.4 g
- KIDNEY_L [5]: 1.4 g
- KIDNEY_R [5]: 1.4 g
- KIDNEY_TOTAL [5]: 2.7 g
- LIVER [3]: 13.1 g
- LIVER [4]: 14.5 g
- LIVER [5]: 17.7 g
- ALP [3]: 848 IU/L
- ALT [3]: 38.2 IU/L
- AST [3]: 67.4 IU/L
- BUN [3]: 21.4 mg/dL
- CRE [3]: 0.6 mg/dL
- DBIL [3]: 0.012 mg/dL
- IP [3]: 7.1 mg/dL
- K [3]: 4.8 meq/L
- LDH [3]: 124.8 IU/L
- Na [3]: 141.2 meq/L
- PL [3]: 140.8 mg/dL
- RALB [3]: 3.9 g/dL
- TBIL [3]: 0.3 mg/dL
- TC [3]: 74.6 mg/dL
- TG [3]: 78.8 mg/dL
- TP [3]: 5.8 g/dL
- gamma-GTP [3]: 0.8 IU/L
- ALP [4]: 763.4 IU/L
- ALT [4]: 37.6 IU/L
- AST [4]: 67 IU/L
- BUN [4]: 20.6 mg/dL
- CRE [4]: 0.6 mg/dL
- Ca [4]: 11 mg/dL
- DBIL [4]: 0.01 mg/dL
- IP [4]: 7.2 mg/dL
- K [4]: 4.3 meq/L
- LDH [4]: 110.6 IU/L
- Na [4]: 140.4 meq/L
- PL [4]: 150.4 mg/dL
- RALB [4]: 4 g/dL
- TBIL [4]: 0.4 mg/dL
- TC [4]: 76.2 mg/dL
- TG [4]: 119.6 mg/dL
- TP [4]: 5.9 g/dL
- gamma-GTP [4]: 1.2 IU/L
- ALP [5]: 716 IU/L
- ALT [5]: 36.6 IU/L
- AST [5]: 59.4 IU/L
- BUN [5]: 19.8 mg/dL
- CRE [5]: 0.7 mg/dL
- Ca [5]: 10.9 mg/dL
- DBIL [5]: 0.016 mg/dL
- IP [5]: 6.4 mg/dL
- K [5]: 4.2 meq/L
- LDH [5]: 107.8 IU/L
- Na [5]: 142.6 meq/L
- PL [5]: 139.6 mg/dL
- RALB [5]: 4 g/dL
- TBIL [5]: 0.3 mg/dL
- TC [5]: 71.4 mg/dL
- TG [5]: 128.2 mg/dL
- TP [5]: 6.2 g/dL
- gamma-GTP [5]: 2.2 IU/L
- TERMINAL_BW (400 mg/kg, 72 h, dose level High, time 3 day): 181.9 g
- Bas [9]: 0%
- Eos [9]: 1%
- Fbg [9]: 202.2 mg/dL
- Hb [9]: 15.1 g/dL
- Ht [9]: 45.5%
